Laboratory results reported in patent US8901126B2, “Substituted imidazo[1,5-A]quinoxalin-4-ones are useful for preventing or treating storage dysfunction, voiding dysfunction and bladder/urethral diseases” (priority 2010, dated 2014).
Where a name gives a salt, the structure may show the parent alone.

What was measured:
PDE9 = target: T1, PDE9 (Homo sapiens, UniProt O76083); test: PDE9-inhibiting activity (SPA, 3H-cGMP degradation); type: biochemical; settings: PDE9-inhibiting activity (IC50 values), cGMP 1 μM, 30° C.
T1 construct: made in house
Protocol: The PDE9 used in the present experiment was expressed/purified by the method as in, for example, Guipponi et al., and Fisher et., al. (Fisher, D. A., et al., J. Biol. Chem., 273: pp. 15559-15564 (1998), Guipponi, M., et al., Hum. Genet., 103: pp. 386-392 (1998)).
(2) Evaluation of PDE9-Inhibiting Activity
The PDE9-inhibiting activity was measured by the following method. That is, to a buffer solution containing tris(hydroxymethyl)aminomethane-hydrochloric acid (40 mM, pH 8.0), magnesium chloride (5 mM), and 2-mercaptoethanol (4 mM) were added cGMP (1 μM) and ^3H-cGMP (0.33 μCi/ml) to give a substrate buffer solution. A test substance solution and an enzyme solution which had been adjusted to an optimal concentration were added thereto to perform a reaction at 30° C. The enzyme reaction was stopped by the addition of Scintillation Proximity Assay (SPA) Beads (Perkin Elmer, USA) containing 5 mM 3-isobutyl-1-methylxanthine (IBMX). For the enzyme activity, the amount of 5′-GMP, which is a reaction degradation product bound to SPA beads, was measured with a TopCount microplate reader (Hewlett Packard, USA).
The inhibitory rate was calculated by taking the radioactivity of the control containing no test substance as (A), taking the radioactivity of the blank containing no enzyme as (B), and taking the radioactivity of the test substance as (C), and using the following equation. Inhibitory rate=100−{(C)−(B)/(A)−(B)}×100(%)

[1] = system: urethra relaxation response; test: Simultaneous measurement model for rat bladder contraction/urethra relaxation responses; type: in vivo; settings: female SD rat, urethane anesthesia, 1 mg/kg, intravenously or intraduodenally
Excerpt: That is, a female Sprague-Dawley (SD) rat (Charles River Laboratories Japan, Inc.) was anesthetized with urethane, and the bladder was exposed by a midline incision in the lower abdomen. A double lumen cannula (a cannula having a dual structure by PE190 and PE50) from the bladder apex was inserted into the bladder, and the bladder apex and the cannula were fixed by sutures at a point where the tip reached the proximal urethra. While infusing physiological saline into the urethra through the outer cannula, the urethral inner pressure was measured by a pressure transducer through the inner cannula with a saline solution infused into the urethra through the outer cannula. On the other hand, a single cannula (PE50) was inserted into the bladder from the bladder apex and placed therein. The inner pressure of the bladder was measured through this cannula. After a postoperative stabilization period had passed, physiological saline was infused into the bladder through the cannula of the bladder apex to cause a bladder contraction reaction, and thus cause a urethra relaxation response accompanying the bladder contraction reflex. The test substance was administered intravenously or intraduodenally.

T1 sequence (O76083 whole entry): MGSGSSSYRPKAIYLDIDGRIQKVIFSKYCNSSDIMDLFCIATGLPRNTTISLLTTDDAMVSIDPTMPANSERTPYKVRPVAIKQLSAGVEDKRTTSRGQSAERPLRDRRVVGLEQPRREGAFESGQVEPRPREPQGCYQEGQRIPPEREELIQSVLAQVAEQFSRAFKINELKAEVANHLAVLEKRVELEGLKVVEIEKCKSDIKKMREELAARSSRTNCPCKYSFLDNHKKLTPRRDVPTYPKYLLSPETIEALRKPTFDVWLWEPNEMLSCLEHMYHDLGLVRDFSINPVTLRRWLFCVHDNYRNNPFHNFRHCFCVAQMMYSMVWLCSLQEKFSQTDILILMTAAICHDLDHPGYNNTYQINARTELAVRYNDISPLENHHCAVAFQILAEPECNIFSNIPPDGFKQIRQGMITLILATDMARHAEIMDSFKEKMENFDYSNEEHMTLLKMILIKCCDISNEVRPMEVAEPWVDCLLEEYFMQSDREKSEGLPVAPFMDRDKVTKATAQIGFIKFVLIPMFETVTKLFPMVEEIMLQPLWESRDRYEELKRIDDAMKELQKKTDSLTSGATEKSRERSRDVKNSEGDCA

IC50 (PDE9) [nM] | melting point | Structure (SMILES) | ratio with increased urethra relaxation time during voiding (increase relative to the solvent administration group (vs vehicle)) [1] [%]
5.8 | – | Cc1cc2c(cc1C(=O)N1CCc3cc(F)c(F)cc31)[nH]c(=O)c1cnc(C3CCOC3)n12.Cl (single isomer, unassigned) [Example 30(b)] | 147
2.8 | – | COCc1cc2c(cc1C(=O)N1CCc3cc(Br)cnc31)[nH]c(=O)c1cnc(C3CCOC3)n12 (single isomer, unassigned) [Example 43(b)] | 138
1.4 | 221 to 224 °C | Cc1cc2c(cc1C(=O)N1CC(C)c3cc(Cl)ccc31)[nH]c(=O)c1cnc(C3CCOCC3)n12.Cl (stereo not shown) [Example 31] | 149
8.9 | – | COCc1cc2c(cc1C(=O)N1Cc3c(F)ccc(F)c3C1)[nH]c(=O)c1cnc(C3CCOC3)n12.Cl (single isomer, unassigned) [Example 45(b)] | 141
6.1 | 168 to 170 °C | COCc1cc2c(cc1C(=O)N1CCc3cc(Br)cnc31)[nH]c(=O)c1nnc(CC3CC3)n12 [Example 44] | –
13 | 154 to 156 °C | COCc1cc2c(cc1C(=O)N1Cc3cccc(F)c3C1)[nH]c(=O)c1cnc(C3CCOC3)n12 (stereo not shown) [Example 42] | –

The next lines start with the compound.

Structure (SMILES) | IC50 (PDE9) [nM] | melting point | ratio with increased urethra relaxation time during voiding (increase relative to the solvent administration group (vs vehicle)) [1] [%]
COCc1cc2c(cc1C(=O)N1CCc3cc(C)cnc31)[nH]c(=O)c1cnc(C3CCOC3)n12 (single isomer, unassigned) [Example 25(b)] | 14 | – | 131
COCc1cc2c(cc1C(=O)N1CCc3cc(OC)ncc31)[nH]c(=O)c1cnc(C3CCOC3)n12 (single isomer, unassigned; (+)) [Example 4(b), (+)-7-[(5-methoxy-2,3-dihydro-1H-pyrrolo[2,3-c]pyridin-1-yl)carbonyl]-8-(methoxymethyl)-1-(tetrahydrofuran-3-yl)imidazo[1,5-a]quinoxalin-4(5H)-one dihydrochloride] | 11 | – | 167
COc1cc2c(cn1)N(C(=O)c1cc3[nH]c(=O)c4cnc(C5CCOC5)n4c3cc1C)CC2 (single isomer, unassigned) [Example 27(b)] | 26 | – | 181
COC1CC(c2nnc3c(=O)[nH]c4cc(C(=O)N5CCc6cc(Br)ccc65)c(C)cc4n23)C1.Cl (stereo not shown) [Example 15] | 2.8 | 188 to 189 °C | –
COc1cc2c(cn1)N(C(=O)c1cc3[nH]c(=O)c4cnc(C5CCOCC5)n4c3cc1Cl)CC2 [Example 21] | 22 | 314 to 316 °C (dec.) | –
Cc1cc2c(cc1C(=O)N1CCc3cc(Br)cnc31)[nH]c(=O)c1cnc(C3CCOC3)n12 (single isomer, unassigned) [Example 29(b)] | 5.6 | – | 149
COc1cc2c(cc1C(=O)N1CCc3cc(Br)cnc31)[nH]c(=O)c1cnc(C3CCOCC3)n12 [Example 23] | 4.9 | 316 to 319 °C (dec.) | –
COC1CC(c2nnc3c(=O)[nH]c4cc(C(=O)N5CCc6cc(Cl)ccc65)c(C)cc4n23)C1.Cl (stereo not shown) [Example 8] | 2.8 | 200 to 202 °C | –
COc1cc2c(cn1)N(C(=O)c1cc3[nH]c(=O)c4cnc(C5CCCOC5)n4c3cc1C)CC2 (stereo not shown) [Example 3, 7-[(5-methoxy-2,3-dihydro-1H-pyrrolo[2,3-c]pyridin-1-yl)carbonyl]-8-methyl-1-(tetrahydro-2H-pyran-3-yl)imidazo[1,5-a]quinoxalin-4(5H)-one] | 22 | 297 to 299 °C | –
